In patent US20250236655A1, “PROCESS FOR THE PREPARATION OF LIRAGLUTIDE” (SHILPA PHARMA LIFESCIENCES LIMITED, priority 2024, published 2025):

Test: storage stability of liraglutide obtained by the present process
Format: physicochemical
Conditions: liraglutide of purity greater or equal to 99.5% obtained as per the present process

Substance: Liraglutide
- stable to handle and store without any significant or measurable change in its morphology and physicochemical characteristics: more than 6 months
